{
  "source": "PubChem BioAssay AID743395",
  "about": "(Broad Institute, 2014)",
  "data": [
    {"tested_on": "HepG2 viability, CellTiter-Glo ATP luminescence, 72 h", "assay": "HepG2 cell cytotoxicity, dose response, cytotoxicity control, CellTiter-Glo luminescence, cherry-pick, set 2 (AID 743395)", "units": {"AC35": "µM"}, "values": [
      {"compound": "NS(=O)(=O)c1ccc(CCNc2nn3c(-c4cccc(OC(F)(F)F)c4)cnc3s2)cc1", "AC35": 16.7},
      {"compound": "CC(=O)N1CCc2c(sc(NC(=O)c3ccc4c(c3)OCCO4)c2C#N)C1", "AC35": 19.4},
      {"compound": "COc1ccc(C(=O)NCCN(C)C)c2nc3ccccc3cc12", "AC35": 2.81},
      {"compound": "CN1c2ccc(-c3ccc(F)cc3)cc2[C@H]2[C@H](CCN2S(=O)(=O)c2cccc(F)c2)[C@@H]1CO", "AC35": 17.3},
      {"compound": "CCOC(=O)c1c(C)[nH]c(C(=O)N/N=C/c2ccc(OC)c(OC)c2)c1C", "AC35": 6.01},
      {"compound": "COc1cccc(C2c3cc4c(cc3OC(NNC(N)=O)C2C)OCO4)c1O", "note": "(configuration not stated)", "AC35": 14.3},
      {"compound": "Nc1c2ccccc2nc2ccccc12", "AC35": 2.63},
      {"compound": "COc1cccc2c1C(=O)c1c(O)c3c(c(O)c1C2=O)CC(O)(C(=O)CO)CC3OC1CC(N(C)C)C(O)C(C)O1", "note": "(configuration not stated)", "AC35": 0.0659},
      {"compound": "COc1ccccc1NC(=O)CSc1ccc(-c2ccccn2)nn1", "AC35": 20.4},
      {"compound": "CCOC(=O)[C@]12CCCC=C1N(Cc1cccc3ccccc13)C(=O)[C@H](CC(=O)NCc1cccc(C(F)(F)F)c1)C2", "AC35": 9.99},
      {"compound": "CC(=O)Nc1ccc(S(=O)(=O)NC2=C(N3CCN(Cc4ccccc4)CC3)C(=O)c3ccccc3C2=O)cc1", "AC35": 17.1},
      {"compound": "Cc1ccc(C(=O)N/N=C/c2cc(Br)ccc2O)cn1", "AC35": 17.8},
      {"compound": "CCC1=Nc2cc(C(=O)NCC3CCCO3)ccc2Sc2ccc(Cl)cc21", "note": "(configuration not stated)", "AC35": 10.6},
      {"compound": "CC(=O)c1cccc(-c2ccnc3c2CC(C(=O)NCc2ccco2)O3)c1", "note": "(configuration not stated)", "AC35": 6.09},
      {"compound": "C=C1C(=O)O[C@@H]2[C@H]1[C@@H](OC(=O)/C(C)=C/C)C/C(C)=C\\C(=O)/C=C(\\C)[C@@H]2O", "AC35": 8.97},
      {"compound": "O=C(Nc1cccc(F)c1)N1CCCCN2[C@@H](CO)[C@H](c3ccc(C#Cc4ccccc4)cc3)[C@@H]2C1", "AC35": 9.45},
      {"compound": "CN(C)C(=O)C(CCN1CCC(O)(c2ccc(Cl)cc2)CC1)(c1ccccc1)c1ccccc1", "AC35": 10.1},
      {"compound": "CCc1ccc(-c2nc(C(N)=O)c3[nH]c(=O)n(-c4ccccc4OC)c3n2)cc1", "AC35": 9.05},
      {"compound": "CN(CC1CCCO1)S(=O)(=O)c1ccc(C(=O)Nc2nnc(-c3ccccc3)o2)cc1", "note": "(configuration not stated)", "AC35": 9.86},
      {"compound": "O=C(Cc1ccccc1)N1CC(=O)N2[C@H](C1)[C@@H](c1ccc(C#Cc3ccccc3)cc1)[C@@H]2CO", "AC35": 20.3},
      {"compound": "O=c1c2ccccc2sc2c(CO)ccc(NCCN3CCCCC3)c12", "AC35": 4.82},
      {"compound": "O=C(CN1CCCC1)N/N=C/c1c(O)ccc2ccccc12", "AC35": 12.6},
      {"compound": "O=C1CN(S(=O)(=O)Cc2ccccc2)C[C@@H]2[C@@H](c3ccc(C#Cc4cccc(F)c4)cc3)[C@H](CO)N12", "AC35": 14.1},
      {"compound": "COc1ccccc1NC(=S)NN=C(C)c1ccccn1", "AC35": 0.0927},
      {"compound": "CCOc1ccc(C(=O)COC(=O)Cc2n[nH]c(=O)c3ccccc23)cc1", "AC35": 19.3},
      {"compound": "O=C(c1ccc(Br)cc1)c1cc([N+](=O)[O-])ccc1N1CCOCC1", "AC35": 3.19},
      {"compound": "COc1ccc([C@H]2C[C@H](O)[C@@H](n3cc(-c4ccc(F)cc4)nn3)CN2Cc2cccs2)cc1", "AC35": 6.12},
      {"compound": "COc1ccc(-c2cc(NC=O)c3ncc(-c4ccc(OC)c(OC)c4)n3c2)cc1", "AC35": 6.95},
      {"compound": "Cc1cccc(N2CCN(C(=O)c3ccc4[nH]c(C)c(C)c4c3)CC2)c1C", "AC35": 2.5},
      {"compound": "CCOC(=O)c1cc2c(=Cc3ccc(N(C)C)cc3)c3ccccc3n2[n+]1C", "AC35": 16.6},
      {"compound": "N=C1/C(=C/c2cccn2CCOc2ccccc2)C(=O)N=C2SC=C(c3ccccc3)N12", "AC35": 19.3},
      {"compound": "Oc1ccc(/C=N/Nc2nc(-c3ccccc3F)nc3ccccc23)c(O)c1", "AC35": 15.6},
      {"compound": "COc1cc(OC)c(-c2c3cc(O)c(=O)cc-3oc3cc(O)c(O)cc23)cc1OC", "AC35": 13.2},
      {"compound": "COc1cccc(N=Nc2ccc3cccnc3c2O)c1", "AC35": 4.42},
      {"compound": "COc1ccc(S(=O)(=O)N(C(=O)C(C)C)c2ccc3oc(=O)sc3c2)cc1", "AC35": 17.1},
      {"compound": "O=C(N/N=C/c1c(O)ccc2ccccc12)C(=O)N1CCCC1", "AC35": 15.7},
      {"compound": "C[C@H]1CN([C@@H](C)CO)S(=O)(=O)c2ccc(C#Cc3ccc(F)cc3)cc2O[C@H]1CN(C)C(=O)NC1CCCC1", "AC35": 19.1},
      {"compound": "COc1ccc(N2CCc3c(C)nc4c(OC)cc(OC)cc4c32)cc1", "AC35": 9.38},
      {"compound": "O=C1NC(=O)C(=Cc2c(Cl)cccc2Cl)C(=O)N1", "AC35": 22.2},
      {"compound": "Oc1cccc(/C=N/Nc2ccc(Cl)nn2)c1O", "AC35": 7.7},
      {"compound": "Cc1nc(C)c(C(=O)NN=Cc2ccc(N(CCCl)CCCl)cc2)s1", "AC35": 11.8},
      {"compound": "CN(C)CCNC(=O)c1ccc(Cl)c2cc3ccccc3nc12", "AC35": 2.59},
      {"compound": "COc1ccc(CNS(=O)(=O)c2cc(-c3cc(C)no3)ccc2C(C)C)cc1", "AC35": 7.14},
      {"compound": "C=CCN1c2ccccc2[C@]23C[C@@H](C(=O)OC)N(C(=O)c4cccs4)C2=NC(C(=O)OC)=C(C(=O)OC)[C@H]13", "AC35": 19.1},
      {"compound": "C=C1SC(Nc2c(C)cc(C)cc2C)=NC12CCCCC2", "AC35": 17.2},
      {"compound": "COc1ccc2cc(CN(CC3CCCO3)C(=S)Nc3ccccc3)c(=O)[nH]c2c1", "note": "(configuration not stated)", "AC35": 13},
      {"compound": "O=C1/C(=C\\c2ccc(O)cc2)SC(=S)N1Cc1ccccc1", "AC35": 17.3},
      {"compound": "O=C(Nc1ccc(Br)cn1)c1cccc2ccccc12", "AC35": 5.99},
      {"compound": "COc1ccc2c3c([nH]c2c1)[C@H](CO)N(S(C)(=O)=O)CC31CCN(Cc2cccc(F)c2)CC1", "AC35": 5.92},
      {"compound": "Cc1ccccc1S(=O)(=O)N1C[C@@H]2N[C@H](C1)C2c1ccc(-c2cccc(C#N)c2)cc1", "note": "(some centres not stated)", "AC35": 9.94},
      {"compound": "COc1ccc2c3c([nH]c2c1)[C@@H](CO)N(C(=O)C1CCOCC1)CC31CCN(Cc2cccc(F)c2)CC1", "AC35": 1.04},
      {"compound": "CCN(CC)c1ccc(/C=N/NC(=O)c2cnccn2)cc1", "AC35": 6.68}
    ]}
  ]
}
